Columns and labels:
h5-HT2C = target: h5-HT2C; set-up: method as in PMID 19118950, PMID 20399562; details: radioligand binding; read-out: Affinity (Ki (nM)) h5-HT2C; cited from earlier work
[1] = test system: 5-HT7 receptor knockout mice; assay: Rectal (body) temperature in 5-HT7 receptor knockout mice; type: in vivo; details: for Effect on body temperature: 30 min after administration
Source text: (§1) Formaldehyde (37 wt.% solution) was purchased from Panreac (Spain) and dissolved in physiological saline. Drugs used for treatments were AS-19 (dimethyl-[5-(1,3,5-tri-methyl-1H-pyrazol-4-yl)-1,2,3,4-tetrahydro-naphthalen-2(S)-yl]-amine), E-55888 (dimethyl-{2-[3-(1,3,5-trimethyl-1H-pyrazol-4-yl)-phenyl]-ethyl}-amine dihydrochloride), and E-57431 (2-(2-(dimethylamino)ethyl)-4-(1,3,5-tri-methyl-1H-pyrazol-4-yl)phenol). AS-19 is a potent selective 5-HT7 receptor agonist commercially available from Tocris Bioscience (UK), whereas E-55888 and E-57431 are 5-HT7 receptor agonists developed by ESTEVE Laboratories (Barcelona, Spain). All three 5-HT7 receptor agonists were synthesized for the purpose of this study at ESTEVE, dissolved in aqueous solutions containing 0.5% (hydroxypropyl) methyl cellulose (Sigma-Aldrich, Spain) and administered in a volume of 5 ml/kg through the subcutaneous (s.c.) route. Doses of drugs (referred to their salt forms) and time of evaluation were selected based on previous studies and on pilot experiments in models used in this study. All treatments were performed under blind conditions in independent groups of mice and behavioral evaluation was done 30 min after drug administration.
(§2) The body temperature was recorded using a precision thermometer (YSI 4600) equipped with a flexible probe (YSI 402). This probe was lubricated with vaseline and inserted 2 cm into the rectum. Temperature recordings were made 20 s following insertion of the probe, as previously described.

gp5-HT4 = target: gp5-HT4; set-up: method as in PMID 19118950, PMID 20399562; details: radioligand binding; read-out: Affinity (Ki (nM)) gp5-HT4; cited from earlier work
h5-HT4e = target: h5-HT4e; set-up: method as in PMID 19118950, PMID 20399562; details: radioligand binding; read-out: Affinity (Ki (nM)) h5-HT4e; cited from earlier work
h5-HT1D = details: cited from earlier work; for Affinity ratio versus 5-HT7 receptors (Ki h5-HT1D/Ki 5-HT7): number-fold higher for 5-HT7 than for the tested receptor; for Ki: radioligand binding, read-out: Affinity (Ki (nM)) h5-HT1D
h5-HT2A = test system: h5-HT2A; set-up: method as in PMID 19118950, PMID 20399562; details: cited from earlier work; for Ki: radioligand binding, read-out: Affinity (Ki (nM)) h5-HT2A
h5-HT7 [2] = test system: h5-HT7; set-up: method as in PMID 19118950, PMID 20399562; details: HEK-293F/h5-HT7 cells, cited from earlier work; for EC50: read-out: EC50, cAMP formation; for Maximal effect (E max), cAMP formation: relative to that of 5-HT
h5-HT transporter (SERT) = target: h5-HT transporter (SERT); set-up: method as in PMID 19118950, PMID 20399562; details: radioligand binding; read-out: Affinity (Ki (nM)) h5-HT transporter (SERT); cited from earlier work
[3] = test system: 5-HT7 receptor knockout mice; assay: Formalin test in 5-HT7 receptor knockout mice; type: in vivo; details: 15-30 min after formalin, versus vehicle
Source text: as §1
(§3) Formalin (20 μL of a 2.5% formalin solution; 0.92% of formaldehyde) was injected into the dorsal surface on the right hind paw, as previously described. […] Mice were placed on a paper surface surrounded by a plexiglas cylinder (20 × 25 cm) and the time spent licking and biting the injected paw was measured using a chronometer. A time course of the licking/biting behaviors was monitored during 45 minutes after formalin injection to evaluate possible differences between genotypes. Drug effects were quantified at 0–5 min (phase I) and 15–30 min (phase II) after formalin injection, two periods of time in which the formalin-induced licking and biting time was high enough to test antinociceptive effects of drugs.

wild-type mice [4] = assay: Formalin test in wild-type mice; type: in vivo; details: 15-30 min after formalin, versus vehicle
Source text: as §1, §3

Other receptors = target: Other receptors; set-up: method as in PMID 19118950, PMID 20399562; details: panel of other receptors assayed; read-out: Affinity (Ki (nM)) Other receptors; cited from earlier work
h5-HT6 = target: h5-HT6; set-up: method as in PMID 19118950, PMID 20399562; details: radioligand binding; read-out: Affinity (Ki (nM)) h5-HT6; cited from earlier work
h5-HT7 [5] = target: h5-HT7; set-up: method as in PMID 19118950, PMID 20399562; details: radioligand binding; read-out: Affinity (Ki (nM)) h5-HT7; cited from earlier work
h5-HT5A = target: h5-HT5A; set-up: method as in PMID 19118950, PMID 20399562; details: cited from earlier work; for Ki: radioligand binding, read-out: Affinity (Ki (nM)) h5-HT5A
wild-type mice [6] = assay: Rectal (body) temperature in wild-type mice; type: in vivo; details: for Effect on body temperature: 30 min after administration
Source text: as §1, §2

h5-HT2B = target: h5-HT2B; set-up: method as in PMID 19118950, PMID 20399562; details: radioligand binding; read-out: Affinity (Ki (nM)) h5-HT2B; cited from earlier work
h5-HT1A = details: cited from earlier work; for Ki: radioligand binding, read-out: Affinity (Ki (nM)) h5-HT1A; for Affinity ratio versus 5-HT7 receptors (Ki h5-HT1A/Ki 5-HT7): number-fold higher for 5-HT7 than for the tested receptor
h5-HT3 = target: h5-HT3; set-up: method as in PMID 19118950, PMID 20399562; details: radioligand binding; read-out: Affinity (Ki (nM)) h5-HT3; cited from earlier work
r5-HT1B = target: r5-HT1B; set-up: method as in PMID 19118950, PMID 20399562; details: cited from earlier work; for Ki: radioligand binding, read-out: Affinity (Ki (nM)) r5-HT1B
5-HT1A = test system: 5-HT1A; set-up: method as in PMID 14741267; details: cited from earlier work
dopamine D2 receptor = test system: dopamine D2 receptor; set-up: method as in PMID 17649988; details: cited from earlier work
[7] = test system: 5-HT1B, 5-HT2B, 5-HT2C, and 5-HT5A; set-up: method as in PMID 20600619; details: cited from earlier work
rats = test system: rats; set-up: method as in PMID 16098671; details: cited from earlier work
[8] = number-fold higher for 5-HT7 than for the tested receptor

| SMILES | Ki (h5-HT2C) | Effect on body temperature ([1]; 20 mg/kg s.c.) | Ki (h5-HT1D) | Ki (h5-HT2A) | EC50 (h5-HT7 [2]) | Maximal effect (E max), cAMP formation (h5-HT7 [2]) | Ki (h5-HT transporter (SERT)) | Ki (Other receptors) | Ki (h5-HT6) | Ki (h5-HT7 [5]) | Ki (h5-HT5A) | Effect on body temperature (wild-type mice [6]; 20 mg/kg s.c.) | Ki (h5-HT2B) | Ki (h5-HT1A) | Ki (h5-HT3) | Ki (r5-HT1B) | other results |
| --- | --- | --- | --- | --- | --- | --- | --- | --- | --- | --- | --- | --- | --- | --- | --- | --- | --- |
| Cc1nn(C)c(C)c1-c1ccc(O)c(CCN(C)C)c1 [E-57431, 2-(2-(dimethylamino)ethyl)-4-(1,3,5-tri-methyl-1H-pyrazol-4-yl)phenol] | > 1000 nM | significantly reduced | 53 nM | 560 nM | 21.5 ± 1 nM | 94.5 ± 1% | > 1000 nM | > 1000 nM | > 1000 nM | 0.47 nM | > 1000 nM | significantly reduced | > 1000 nM | > 1000 nM | > 1000 nM | > 1000 nM | Effect on body temperature ([1]; 10 mg/kg s.c.): did not significantly change; Body temperature reduction ([1]; 20 mg/kg s.c.): 2.3 °C; Ki (gp5-HT4): > 1000 nM; Ki (h5-HT4e): > 1000 nM; Affinity for 5-HT7 higher than for 5-HT1D (h5-HT1D): 112.7 fold; Affinity ratio versus 5-HT7 receptors (Ki h5-HT1D/Ki 5-HT7) (h5-HT1D): 112.7 x; Affinity ratio versus 5-HT7 receptors (Ki h5-HT2A/Ki 5-HT7) (h5-HT2A; [8]): 1191.5 x; Formalin phase II licking/biting time significantly reduced ([3]; 10 mg/kg s.c.): not; Formalin phase II licking/biting time (wild-type mice [4]; 10 mg/kg s.c.): significant reduction; Effect on body temperature (wild-type mice [6]; 10 mg/kg s.c.): did not significantly change; Body temperature reduction (wild-type mice [6]; 20 mg/kg s.c.): 1.1 °C |
| Cc1nn(C)c(C)c1-c1cccc(CCN(C)C)c1.Cl.Cl [E-55888, dimethyl-{2-[3-(1,3,5-trimethyl-1H-pyrazol-4-yl)-phenyl]-ethyl}-amine dihydrochloride] | > 1000 nM | did not significantly change | > 1000 nM | > 1000 nM | 16 ± 1 nM | 99 ± 1% | > 1000 nM | > 1000 nM | > 1000 nM | 2.5 nM | > 1000 nM | did not significantly change | > 1000 nM | 700 nM | > 1000 nM | > 1000 nM | Ki (h5-HT4e): > 1000 nM; Formalin phase II licking/biting time significantly reduced ([3]; 20 mg/kg s.c.): not; Formalin phase II licking/biting time (wild-type mice [4]; 20 mg/kg s.c.): significant reduction; Affinity for 5-HT7 higher than for 5-HT1A (h5-HT1A): 280 fold; Affinity ratio versus 5-HT7 receptors (Ki h5-HT1A/Ki 5-HT7) (h5-HT1A): 280 x |
| CN(C)CCSc1cccc(-c2ccccc2)n1 [MSD-5a] | – | – | – | – | – | – | – | – | – | – | – | – | – | – | – | – | Affinity for 5-HT7 higher than for 5-HT1A (5-HT1A): 28.6 fold |
| N#Cc1ccc(CNC(=O)CCCCCN2CCN(c3ccccc3-c3ccccc3)CC2)cc1 [LP-211] | – | – | – | – | – | – | – | – | – | – | – | – | – | – | – | – | Affinity for 5-HT7 higher than for dopamine D2 receptor (dopamine D2 receptor): 33 fold; Affinity for 5-HT7 higher than for 5-HT1B, 5-HT2B, 5-HT2C, and 5-HT5A [7]: 5-14 fold |
| Cc1nn(C)c(C)c1-c1cccc2c1CC[C@H](N(C)C)C2 [AS-19, dimethyl-[5-(1,3,5-tri-methyl-1H-pyrazol-4-yl)-1,2,3,4-tetrahydro-naphthalen-2(S)-yl]-amine, reference compound] | > 1000 nM | significantly reduced | 6.6 nM | > 1000 nM | 9 ± 1 nM | 77% | > 1000 nM | > 1000 nM | > 1000 nM | 0.6 nM | 98.5 nM | significantly reduced | > 1000 nM | 89.7 nM | > 1000 nM | 490 nM | Effect on body temperature ([1]; 10 mg/kg s.c.): did not significantly change; Body temperature reduction ([1]; 20 mg/kg s.c.): 2.4 °C; Ki (gp5-HT4): > 1000 nM; Affinity for 5-HT7 higher than for 5-HT1D (h5-HT1D): 11 fold; Affinity ratio versus 5-HT7 receptors (Ki h5-HT1D/Ki 5-HT7) (h5-HT1D): 11 x; Formalin phase II licking/biting time significantly reduced ([3]; 10 mg/kg s.c.): not; Formalin phase II licking/biting time (wild-type mice [4]; 10 mg/kg s.c.): significant reduction; Affinity ratio versus 5-HT7 receptors (Ki h5-HT5A/Ki 5-HT7) (h5-HT5A; [8]): 164.2 x; Effect on body temperature (wild-type mice [6]; 10 mg/kg s.c.): did not significantly change; Body temperature reduction (wild-type mice [6]; 20 mg/kg s.c.): 3.8 °C; Affinity ratio versus 5-HT7 receptors (Ki h5-HT1A/Ki 5-HT7) (h5-HT1A): 149.5 x; Affinity ratio versus 5-HT7 receptors (Ki r5-HT1B/Ki 5-HT7) (r5-HT1B; [8]): 816.6 x |
| NCCc1c[nH]c2ccc(C(N)=O)cc12 [5-carboxamidotryptamine] | – | – | – | – | – | – | – | – | – | – | – | – | – | – | – | – | Phase II formalin-induced nociceptive behavior (rats; intraplantar or spinal administration): increased |
| CC1CCN(CC[C@H]2CCCN2S(=O)(=O)c2cccc(O)c2)CC1 [SB-269970, (R)-3-(2-(2-(4-methylpiperidin-1-yl)-ethyl)pyrrolidine-1-sulfonyl)phenol] | – | – | – | – | – | – | – | – | – | – | – | – | – | – | – | – | Effect on 5-carboxamidotryptamine-induced increase of phase II formalin nociceptive behavior (rats): significantly reversed |

— PMC3385710, “Assessment of 5-HT7 Receptor Agonists Selectivity Using Nociceptive and Thermoregulation Tests in Knockout versus Wild-Type Mice” (Advances in Pharmacological Sciences, 2012)
